Measured values from patent publication US9345764B2, “Moesin modulators and uses thereof” (SHANGHAI KEXIN BIOTECH CO., LTD., priority 2010, dated 2016).

Assays:
[1] = test system: human pulmonary microvascular endothelial cell line (HPMEC); assay: Cell proliferation assay; format: cell-based; conditions: agent alone; compared with negative control (Group 6, PBS); FIG. 3
Protocol: Cell proliferation assay were performed using a human pulmonary microvascular endothelial cell line (HPMEC). Cells were plated in each well on a 6-well plate at 10^6 cells/cm^2, and cultured at […] in the presence of various testing and control reagents as described below. After culturing for a determined period of time, cells were collected and labeled for flow cytometry analysis. Proliferation rates at 2 hrs, 24 hrs and 36 hrs were determined by dividing the mean OD570 value from the tested groups with the mean OD570 value from the group having the same number of cells as the test groups at the beginning of the cell culturing.
Tested and control groups are as follows:
2) Antibody against full length moesin protein (anti-Moesin);
3) Antibody against the C-terminal tail domain only (anti-M3);
4) TNF-alpha+anti-Moesin;
6) PBS solution (negative control)

HPMEC cells = assay: Annexin V apoptosis assay (FITC/PI, flow cytometry); format: cell-based, human; conditions: agent alone, without combination partner
Protocol: Cell cultures in the presence of anti-moesin antibodies as described in Example 1 were subjected to apoptosis assay as well as surface antigen assay, to assess the antibody's effect on promoting endothelial cell apoptosis and on intercellular expression of moesin (indicating the active form of the protein).
Annexin V assay was used to study apoptosis. Collected cells were washed with PBS, centrifuged, and added sequentially with 70% ethanol, […] (200 mg/l) and PI (20 mg/l). Cells were then stained with Annexin-V FITC/PI kit for double staining of FITC and PI, because viable cells are both FITC and PI negative, while cells that are in early apoptosis are FITC positive but PI negative, and cells that are in late apoptosis or already dead are both FITC and PI positive. Stained cells are analyzed using a flow cytometer for amount of apoptotic cells in the presence of variant testing agents. The percentage of cells in early apoptosis and the percentage of cells in late apoptosis or dead cells after treatment with the test groups and the control group were determined and the results are shown in FIG. 4(a) and FIG. 4(b) respectively.

## TNF-alpha
[1]
  cell proliferation rates: reduced cell proliferation rates but not as much as in combination with anti-moesin or anti-M3
HPMEC cells
  cell apoptosis: could induce cell apoptosis but the effect is not as much as it in combination with anti-moesin or anti-M3
